Reference: patent US8519007B2, “Use certain diterpene compounds in the treatment of androgen receptor-associated diseases” (Academia Sinica, priority 2008, dated 2013)

Experiments:
PC-3 cells [1] = assay: Cell cycle distribution by propidium iodide flow cytometry; type: cell-based, human; settings: 48 h
Description: (§3) The cell cycle of treated cells was examined by flow cytometry after cellular staining with propidium iodide. 5×10^5 cells were seeded into 6-well multidishes with 10% FBS culture medium for 48 h. […] Cells were trypsinized thereafter, washed twice with cold PBS, and centrifuged. The pellet was suspended in cold PBS and 1 mL of 70% ethanol at 4° C. overnight, washed twice with cold PBS, and digested with RNase (100 μg/mL final concentration) and stained with propidium iodide (10 μg/mL final concentration) for 30 min and analyzed by flow cytometry (EPICS XL-MCL, Beckman Coulter, Inc., Fullerton, Calif.).

NIH-3T3 cells = assay: MTT cell viability; type: cell-based; settings: NIH-3T3, concentrations above 10 μM, 48 h, versus LNCaP and 22Rv1
Description: The effects of HDHS on cell viability in various PCa cell lines including androgen-dependent LNCaP, androgen-responsive 22Rv1 cells, and androgen-independent PC-3 cells were tested and compared with untransformed fibroblast NIH-3T3 cells. PCa or NIH-3T3 cells (1×10^4 cells) were seeded into 96-well microtiter plates with 10% FBS culture medium. After 24 h, cells were incubated in 10% FBS medium containing different concentrations of HDHS or equivalent amounts of vehicle alone as control for 48 h. Cell viability was then determined by MTT assay, which quantitatively measures the metabolic activity of living cells.

22Rv1 tumors = assay: 22Rv1 xenograft in athymic nude mice, oral HDHS; type: in vivo
Description: 22Rv1 cells were derived from a castration-relapsed tumor of human PCa origin that represents a clinical limitation for hormonal therapy (Nagabhushan M, et al., Cancer Res 1996;56:3042-6; Sramkoski R M, et al., In Vitro Cell Dev Biol Anim 1999; 35:403-9). The potential of HDHS to inhibit growth of PCa in vivo was tested in athymic nude mice with 22Rv1 tumors. […]. All animal work was done in accordance with the protocol approved by the Institutional Animal Care and Use Committee, Academia Sinica. Aliquots of 1×10^6 22Rv1 cells were suspended in 1:1 PBS mixed with Matrigel (BD Biosciences, San Jose, Calif.) and were subcutaneously inoculated into the right flank of each mouse. Once the tumor grew to palpable size one week after 22Rv1 cells were implanted, mice were stochastically assigned to three groups (n=7) that received vehicle control or HDHS at different dosages (0.5 and 2.5 mg/kg/day), by gavage in 0.2 mL of PBS containing 10% DMSO. Tumors were measured twice per week using calipers and their volumes calculated using a standard formula, as follows: width2×length×0.5. Body weight was measured weekly. Mice received 24 doses, and 24 h after the last dose they were sacrificed to harvest plasma and tumors. A portion of each tumor was snap-frozen in liquid nitrogen and stored at −80° C. until needed for western blot analysis of relevant biomarkers, and the remainder was fixed in 10% formalin overnight.
Immunohistochemistry was conducted to examine the in vivo effects of HDHS on proliferation and apoptosis in tumor xenografts. The paraffin-embedded tumor sections (4 μm thickness) were heat immobilized, deparaffinized using xylene and rehydrated in a graded series of ethanol with a final wash in distilled water. Antigen retrieval was done in TARGET RETRIEVAL SOLUTION (DakoCytomation, Glostrup, Denmark) in a DECLOAKING CHAMBER (Biocare Medical, Concord, Calif.) followed by quenching of endogenous peroxidase activity. Sections were then incubated with specific primary antibodies, including mouse monoclonal anti-Ki-67 (DakoCytomation) and rabbit polyclonal anti-AR (Santa Cruz) at 4° C. overnight in a humidity chamber. An ENVISION system (DakoCytomation) was used to detect the reaction products. In situ detection of apoptotic cells was carried out using terminal deoxynucleotidyl transferase-mediated nick-end labeling (TUNEL assay) reaction mixture according to the manufacturer's protocol (Chemicon).

22Rv1 cells [2] = assay: Cell cycle distribution by propidium iodide flow cytometry; type: cell-based, human; settings: 48 h
Description: as §3

PC-3 cells [3] = assay: Colony-forming growth assay; type: cell-based; settings: Homo sapiens, 288 h; PC-3, 12 days; read-out: IC50 (anti-proliferation potency), colony growth
Description: (§1) FIGS. 3A-C. HDHS affects growth of PCa cells. A, Cell viability of different cell lines treated with vehicle (Ctrl) or indicated concentrations of HDHS for 48 h. The absorbance of the control group was defined as 100%. B, Colony-forming growth of LNCaP and 22Rv1 cells (AR-dependent PCa cells) and PC-3 cells (AR-independent PCa cells) in 24-well multi-dishes with indicated treatments for 12 days. The results were presented as percentage of growth with respect to control treatment of the same cell line. C, Photographs of different PCa cell lines growing on culture plates with designated treatments for […].
(§2) The long-term effect of HDHS on the malignant growth of AR-dependent (22Rv1, and LNCaP) and AR-independent (PC-3) PCa cells was examined by colony-forming growth assay. […] The differential effect was also reflected in the morphology of treated cells.

22Rv1 cells [4] = assay: Colony-forming growth assay; type: cell-based; settings: Homo sapiens, 288 h; 22Rv1, 12 days; read-out: IC50 (anti-proliferation potency), colony growth
Description: as §1, §2

LNCaP cells = assay: Colony-forming growth assay; type: cell-based; settings: Homo sapiens, 288 h, 12 days, read-out: IC50 (anti-proliferation potency), colony growth
Description: as §1, §2

[5] = 0.5 and 2.5 mg/kg/day oral, 24 days

## CC(C)c1cc2c(cc1O)[C@@]1(C)CCCC(C)(C)C1=C(O)C2=O [Compound 2, 6,12-dihydroxyabieta-5,8,11,13-tetraen-7-one]
PC-3 cells [1]; PC-3, 2.5 μM
  G0-G1 phase cell population: 52.7 ± 2.0 %
  G2-M phase cell population: 24.9 ± 2.7 %
  S phase cell population: 19.2 ± 1.0 %
  Sub-G1 phase cell population: 2.3 ± 0.7 %
PC-3 cells [1]; PC-3, 5 μM
  G0-G1 phase cell population: 55.9 ± 2.9 %
  G2-M phase cell population: 19.5 ± 2.9 %
  S phase cell population: 18.8 ± 1.1 %
  Sub-G1 phase cell population: 2.8 ± 0.9 %
PC-3 cells [1]; PC-3, 10 μM
  G0-G1 phase cell population: 58.2 ± 2.8 %
  G2-M phase cell population: 19.2 ± 3.2 %
  S phase cell population: 18.0 ± 1.9 %
  Sub-G1 phase cell population: 2.1 ± 0.6 %
NIH-3T3 cells
  cell viability (MTT): far less pronounced
22Rv1 tumors; [5]
  Ki-67 positive proliferative tumor cells: decreased the number of cells positively stained for Ki-67
  TUNEL positive apoptotic tumor cells: increase of apoptotic tumor cells
22Rv1 tumors; HDHS-treated 22Rv1 tumors
  AR expression in tumor cells (immunohistochemistry): prevalent decrease of AR expression
22Rv1 tumors; nude mice, 0.5 and 2.5 mg/kg/day by gavage, 24 doses
  tumor growth of 22Rv1 xenograft: significantly retarded tumor growth
22Rv1 tumors; nude mice, 24-day regimen, oral
  symptoms of toxicity (loss of appetite, decreased locomotion, signs of illness): did not exhibit any symptoms of toxicity
22Rv1 tumors; up to 2.5 mg/kg per day, oral
  body weight of tested mice: not influenced
22Rv1 cells [2]; 22Rv1, 2.5 μM
  G0-G1 phase cell population: 54.5 ± 2.5 %
  G2-M phase cell population: 24.8 ± 2.4 %
  S phase cell population: 11.2 ± 1.9 %
  Sub-G1 phase cell population: 2.2 ± 0.8 %
22Rv1 cells [2]; 22Rv1, 5 μM
  G0-G1 phase cell population: 57.9 ± 1.9 %
  G2-M phase cell population: 23.7 ± 2.7 %
  S phase cell population: 8.0 ± 1.4 %
  Sub-G1 phase cell population: 3.8 ± 0.9 %
22Rv1 cells [2]; 22Rv1, 10 μM
  G0-G1 phase cell population: 48.4 ± 2.9 %
  G2-M phase cell population: 24.5 ± 2.0 %
  S phase cell population: 5.7 ± 2.2 %
  Sub-G1 phase cell population: 14.4 ± 3.7 %
PC-3 cells [3]
  IC50: 13.2 µM
22Rv1 cells [4]
  IC50: 6.3 µM
LNCaP cells
  IC50: 7.5 µM
